Tested on: human citrated plasma
Assay: aPTT time prolongation in human citrated plasma (Biomatic B10 coagulometer)
Type: biochemical
Conditions: effective concentration at which the aPTT time is double compared with the control, 37° C.
Procedure: were investigated for their effect on prolonging the aPTT time as follows:
Materials: plasma, from human citrated blood;
PTT reagent, Boehringer Mannheim (524298);
Calcium solution (0.025 mol/L), Behring Werke, Marburg (ORH 056/57),
Diethylbarbiturate acetate buffer, Behring Werke, Marburg (ORWH 60/61); and
Biomatic B10 coagulometer, Desaga, Wiesloch.
The aPTT time was determined using a Biomatic B10 coagulometer made by Messrs. Desaga.
The test substance was placed in the test tubes prescribed by the manufacturer with 0.1 mL of human citrated plasma and 0.1 mL of PTT reagent. The mixture was incubated for three minutes at 37° C. The clotting reaction was started by the addition of 0.1 mL of calcium solution. The time is measured using the apparatus from the addition of the calcium solution up to the clotting of the mixture. Mixtures to which 0.1 mL of DBA buffer had been added were used as the controls.
According to the definition, a dosage-activity curve was used to determine the effective concentration of the substance at which the aPTT time is double compared with the control.

Cc1cc(C(=O)N2CCCC2C)c(C)cc1NC(=O)CNc1ccc(C(=N)N)cc1 (centres unmarked) [A, 4-{N-[2,5-dimethyl-4-(2-methylpyrrolidinocarbonyl)phenylaminocarbonylmethyl]-amino}benzamidine]
aPTT time (ED200 in μM): 0.65 µM

Cc1cc(C(=O)C(C)C)c(C)cc1NC(=O)CNc1ccc(C(=N)N)cc1 [B, 4-[N-(2,5-dimethyl-4-isopropylcarbonylphenylaminocarbonylmethyl)amino]benzamidine]
aPTT time (ED200 in μM): 0.67 µM
